In brackets after ≈: the same amount, converted by molar mass. Like-named read-outs stand apart in the source and are kept apart here.
Assays:
purified human PRX3 = molecular target: T1, purified human PRX3 (Homo sapiens, UniProt P30048); assay: Biochemical PRX3 Inhibition Assay (non-reducible crosslink by SDS PAGE + single adduct by MALDI-TOF MS); details: 100 μM PRX3 with TRX2/thioredoxin reductase/NADPH system and hydrogen peroxide, 1-2 hr at 37° C.
T1 construct: made in house
T1 sequence (P30048 62-256): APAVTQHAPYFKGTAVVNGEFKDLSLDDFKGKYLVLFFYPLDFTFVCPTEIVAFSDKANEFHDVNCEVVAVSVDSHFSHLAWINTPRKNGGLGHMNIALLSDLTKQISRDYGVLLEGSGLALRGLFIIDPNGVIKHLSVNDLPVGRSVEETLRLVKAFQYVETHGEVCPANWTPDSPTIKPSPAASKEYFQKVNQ
From the text: The compounds described herein generally react with two essential cysteine residues in the mitochondrial peroxidase PRX3, leading to the formation of a non-reducible, covalent crosslink of two PRX3 monomers. This crosslink inactivates PRX3. Increased PRX3 crosslink is associated with mitochondrial stress, increased cell death in cell models of malignant mesothelioma and is associated with decreased tumor volume in a mouse model. Cunniff et al. (2015) PloS one 10, e0127310.
(§1) To test the activity of compounds, two complimentary assays were used as described below. The Biochemical PRX3 Inhibition Assay tests the ability of each compound to crosslink PRX3 in a simple, in vitro system. In the Cellular Activity Assay, we are testing the ability of compounds to kill SK—OV-3 ovarian cancer cells.
This assay tests the ability of each compound to form a covalent adduct with PRX3. The assay is performed as described in Nelson et al. (2021) Antioxidants (Basel) 10, 150; and Cunniff et al. (2015) PloS one 10, e0127310, and follows the appearance of non-reducible PRX3 crosslinks by SDS PAGE gel electrophoresis and follows the appearance of single PRX3 adducts by mass spectrometry. For this assay, purified human PRX3, hydrogen peroxide (the PRX3 substrate) and all the components required to enable PRX3 to catalytically cycle (thioredoxin-thioredoxin reductase-NAPDH system) are included (details below).
The biochemical PRX3 Inhibition assay contains 100 μM PRX3, 50 μM human TRX2, 0.5 μM mouse thioredoxin reductase, and a NADPH regenerating system composed of 3.2 mM glucose 6-phosphate, 3.2 U/ml glucose 6-phosphate dehydrogenase and 0.4 mM NADPH. Samples are incubated for 1-2 hr at 37° C. with either 0.2 mM TS (positive control), compounds or an equivalent volume of DMSO (negative control). During this incubation, hydrogen peroxide is added to induce turnover of PRX3. Reactions are stopped by the addition of a buffer containing 100 mM dithiothreitol (to break disulfide bonds) and SDS (detergent to denature proteins). NADPH, Glucose 6-Phosphate, and glucose 6-phosphate dehydrogenase were purchased from Sigma Aldrich. PRX3, thioredoxin, and thioredoxin reductase were all purified to >98% purity in the Lowther laboratory according to protocols referenced in Nelson et al. (2021) Antioxidants (Basel) 10, 150; and Cunniff et al. (2015) PloS one 10, e0127310.
To measure the amount of PRX3 crosslink, proteins in the reaction were separated by SDS-polyacrylamide gel electrophoresis and stained for total protein using GelCode Blue (Life Technologies). The amount of unmodified PRX3 and TS-PRX3 crosslink was measured by densiometric analysis of the signal for the PRX3 band running at the MW of a PRX3 crosslink (˜46 kDa) compared to the PRX3 signal at the MW of the un-modified PRX3 (−23 kD).
To measure covalent adduct formation on a single PRX3 monomer, each reaction was exchanged into a mass spectrometry compatible buffer containing 40 mM ammonium citrate, pH 8.3 made in HPLC water. Sample was mixed 1:1 with a matrix solution containing 30 mg/mL sinapinic acid in 70% (vol/vol) acetonitrile, 0.2% formic acid and spotted to onto the sample plate. PRX3 mass was measured by MALDI-TOF MS analysis on a Bruker Daltonics MALDI-TOF MS spectrometer. Spectra were analyzed in FLEXAnalysis Software. The intensity of the reduced PRX3 peak (SH) and intensity of the analog adduct peak was determined and corrected for background signal at the adduct peak in the DMSO control. The fraction of single analog adduct in the monomer peak was determined by dividing the intensity of the adduct peak by the summed intensity of the SH and adduct peaks.

[1] = system: human SK—OV-3 ovarian cancer cells; assay: Cellular Activity Assay (cytotoxicity, crystal violet); assay type: cell-based; details: SK—OV-3 cells, treated for 48 hr, 0.1-100 μM, crystal violet absorbance at 540 nm
From the text: as §1
The Cellular Activity Assay measures the EC50 of each compound in human SK—OV-3 ovarian cancer cells TS to be taken into the cell, transported to the mitochondria, and crosslink PRX3.
The cytotoxicity of compounds was measured as described in Nelson et al. (2021) Antioxidants (Basel) 10, 150; Cunniff et al. (2015) PloS one 10, e0127310; and Newick et al. (2012) PloS one 7, e39404. SK—OV-3 is an adherent, epithelial, adenocarcinoma cell line obtained from ATCC (ref #: HTB-77). SK—OV-3 cells are resistant to the commonly used chemotherapeutics, cis-platinum and doxorubicin. For this […], SK—OV-3 cells were plated in a 96-well plate. After 24 h recovery, the cells were treated for 48 hr with multiple concentrations of each compound ranging from 0.1-100 μM.
Cells were washed with PBS to remove dead cells and the remaining live cells were fixed with 3.0% formaldehyde and stained with 0.1% crystal violet. The amount of crystal violet was determined by reading the absorbance at 540 nm (crystal violet dye dissolved in 100% methanol) using a plate reader. The signal for crystal violet dye is proportional to the biomass of remaining live cells. GraphPad Prism9 software was used to calculate the effective inhibitory concentration (EC50) of test compounds. Results for each compound, are normalized to the amount of cells in control wells treated with the equivalent concentration of DMSO (negative control). TS or Compound 4 were included in each set of assays as a positive control.

Solubility Assay (HPLC) = assay type: physicochemical; details: 20 mM HEPES, 100 mM NaCl, pH 7.5, 18-24 hours at ambient temperature
Description: A 20 mM stock solution was made for each compound in DMSO. To measure solubility, 0.03-0.05 mL of the stock was added to 0.27 mL 20 mM HEPES, 100 mM NaCl, pH 7.5. The solution was mixed and rotated 18-24 hours at ambient temperature. The next day, solutions were centrifuged for 10 min at 20,000×g at […] to remove insoluble, solid material. Next, 100 μL of the supernatant containing the soluble compound was added to 900 μL DMSO and High Performance Liquid Chromatography was performed as described in Table 1 and either HIPLC gradient 1 (Table 2) or HIPLC gradient 2 (Table 3). For each analog, a 200 μM standard and a 20 μM standard were prepared and run in parallel (standards were dissolved completely in […]). The amount ofLcompound in the experimental sample was calculated by comparing the area under the curve for compound peak to the area for the closest standard and correcting for dilution.

[2] = HEPES/NaCl buffer, aqueous with cosolvent or surfactant or cyclodextrin, kinetic from dmso stock, read-out: Solubility

Structure (SMILES)	solubility (Solubility Assay (HPLC); [2]) [µM]	PRX3 Inhibition (Crosslink + Mono-adduct) (purified human PRX3)	EC50 ([1]; Homo sapiens) [µM]	EC50 [1] [µM]	solubility (Solubility Assay (HPLC))
C=C(NC(=O)c1csc(-c2ccc(CNC(=O)COCCOC)cc2)n1)C(=O)NC(=C)C(=O)OC [Compound 35, Methyl 2-(2-(2-(4-((2-(2-methoxyethoxy)acetamido)methyl)phenyl)thiazole-4-carboxamido)acrylamido)acrylate]	100 to 1000 (≈ 50.3 to 503 µg/mL)	+++ (>90%)	1 to 10		
C=C(NC(=O)c1csc(-c2ccc(CNC(=O)CCNC(=O)OC(C)(C)C)cc2)n1)C(=O)NC(=C)C(=O)OC [Compound 38, Methyl 2-(2-(2-(4-((3-((tert-butoxycarbonyl)amino)propanamido)methyl)phenyl)thiazole-4-carboxamido)acrylamido)acrylate]	< 100	++ (50-90%)	1 to 10		
C=C(NC(=O)c1csc(-c2ccc(CNC(=O)CCCCCN=[N+]=[N-])cc2)n1)C(=O)NC(=C)C(=O)OC [Compound 39, Methyl 2-(2-(2-(4-((6-azidohexanamido)methyl)phenyl)thiazole-4-carboxamido)acrylamido)acrylate]	< 100	++ (50-90%)	1 to 10		
C=C(NC(=O)c1csc(-c2cccc(CNC(=O)OC(C)(C)C)c2)n1)C(=O)NC(=C)C(=O)OC [Compound 43, Methyl 2-(2-(2-(3-(((tert-butoxycarbonyl)amino)methyl)phenyl)thiazole-4-carboxamido)acrylamido)acrylate]	< 100	+++ (>90%)	1 to 10		
C=C(NC(=O)c1csc(-c2ccc(CNC(=O)CCCCCNC(=O)OC(C)(C)C)cc2)n1)C(=O)NC(=C)C(=O)OC [Compound 44, Methyl 2-(2-(2-(4-((6-((tert-butoxycarbonyl)amino)hexanamido)methyl)phenyl)thiazole-4-carboxamido)acrylamido)acrylate]		+++ (>90%)		1 to 10	+ (<0.1 mM)
C=C(NC(=O)c1csc(N2CCC(NC(=O)CC3CCOCC3)CC2)n1)C(=O)NC(=C)C(=O)OC [Compound 51, Methyl 2-(2-(2-(4-(2-(tetrahydro-2H-pyran-4-yl)acetamido)piperidin-1-yl)thiazole-4-carboxamido)acrylamido)acrylate]	< 100	+++ (>90%)			
C=C(NC(=O)c1csc(N2CCC(NC(=O)C3COCCO3)CC2)n1)C(=O)NC(=C)C(=O)OC (centres unmarked) [Compound 58, Methyl 2-(2-(2-(4-(1,4-dioxane-2-carboxamido)piperidin-1-yl)thiazole-4-carboxamido)acrylamido)acrylate]	100 to 1000 (≈ 49.4 to 494 µg/mL)	+++ (>90%)			
C=C(NC(=O)c1csc(N2CCN(C(=O)C3CCOCC3)CC2)n1)C(=O)NC(=C)C(=O)OC [Compound 59, Methyl 2-(2-(2-(4-(tetrahydro-2H-pyran-4-carbonyl)piperazin-1-yl)thiazole-4-carboxamido)acrylamido)acrylate]	100 to 1000 (≈ 47.8 to 478 µg/mL)	+++ (>90%)			
C=C(NC(=O)c1csc(N2CCN(C(=O)OC(C)(C)C)[C@H](C)C2)n1)C(=O)NC(=C)C(=O)OC [Compound 60, Tert-butyl (R)-4-(4-((3-((3-methoxy-3-oxoprop-1-en-2-yl)amino)-3-oxoprop-1-en-2-yl)carbamoyl)thiazol-2-yl)-2-methylpiperazine-1-carboxylate]	< 100	+++ (>90%)			

Second part, led by results:

solubility (Solubility Assay (HPLC); [2]) [µM]	Structure (SMILES)	PRX3 Inhibition (Crosslink + Mono-adduct) (purified human PRX3)	EC50 ([1]; Homo sapiens) [µM]	EC50 [1] [µM]	solubility (Solubility Assay (HPLC))
< 100	C=C(NC(=O)c1csc(-c2ccc(CNC(=O)C3CCOCC3)cc2)n1)C(=O)NC(=C)C(=O)OC [Compound 36, Methyl 2-(2-(2-(4-((tetrahydro-2H-pyran-4-carboxamido)methyl)phenyl)thiazole-4-carboxamido)acrylamido)acrylate]	+++ (>90%)	1 to 10		
< 100	C=C(NC(=O)c1csc(-c2ccc(CNC(=O)CCCCCCl)cc2)n1)C(=O)NC(=C)C(=O)OC [Compound 37, Methyl 2-(2-(2-(4-((6-chlorohexanamido)methyl)phenyl)thiazole-4-carboxamido)acrylamido)acrylate]	+ (5-50%)	1 to 10		
100 to 1000 (≈ 52.6 to 526 µg/mL)	C=C(NC(=O)c1csc(N2CCC(CNC(=O)CCCCCCl)CC2)n1)C(=O)NC(=C)C(=O)OC [Compound 40, Methyl 2-(2-(2-(4-((6-chlorohexanamido)methyl)piperidin-1-yl)thiazole-4-carboxamido)acrylamido)acrylate]	+++ (>90%)	10 to 25		
> 1000	C=C(NC(=O)c1csc(N2CCC(CNC(=O)COCCOC)CC2)n1)C(=O)NC(=C)C(=O)OC [Compound 41, Methyl 2-(2-(2-(4-((2-(2-methoxyethoxy)acetamido)methyl)piperidin-1-yl)thiazole-4-carboxamido)acrylamido)acrylate]	+++ (>90%)	10 to 25		
< 100	C=C(NC(=O)c1csc(-c2ccc(COC(=O)NCCCOC)cc2)n1)C(=O)NC(=C)C(=O)OC [Compound 42, Methyl 2-(2-(2-(4-((((3-methoxypropyl)carbamoyl)oxy)methyl)phenyl)thiazole-4-carboxamido)acrylamido)acrylate]	+++ (>90%)	1 to 10		
